Data: patent publication US20150011751A1, “NOVEL TRIAZINE DERIVATIVE” (CARNA BIOSCIENCES, INC., priority 2012, published 2015)
pIC50: −log10 of the molar value. Structures can show the parent of a compound that is named as a salt.

Target: Dephosphorylated BTK (Homo sapiens, UniProt Q06187)
Assay: Test of activity inhibition against dephosphorylated BTK (mobility shift assay)

Sequence of Dephosphorylated BTK (Q06187 whole entry): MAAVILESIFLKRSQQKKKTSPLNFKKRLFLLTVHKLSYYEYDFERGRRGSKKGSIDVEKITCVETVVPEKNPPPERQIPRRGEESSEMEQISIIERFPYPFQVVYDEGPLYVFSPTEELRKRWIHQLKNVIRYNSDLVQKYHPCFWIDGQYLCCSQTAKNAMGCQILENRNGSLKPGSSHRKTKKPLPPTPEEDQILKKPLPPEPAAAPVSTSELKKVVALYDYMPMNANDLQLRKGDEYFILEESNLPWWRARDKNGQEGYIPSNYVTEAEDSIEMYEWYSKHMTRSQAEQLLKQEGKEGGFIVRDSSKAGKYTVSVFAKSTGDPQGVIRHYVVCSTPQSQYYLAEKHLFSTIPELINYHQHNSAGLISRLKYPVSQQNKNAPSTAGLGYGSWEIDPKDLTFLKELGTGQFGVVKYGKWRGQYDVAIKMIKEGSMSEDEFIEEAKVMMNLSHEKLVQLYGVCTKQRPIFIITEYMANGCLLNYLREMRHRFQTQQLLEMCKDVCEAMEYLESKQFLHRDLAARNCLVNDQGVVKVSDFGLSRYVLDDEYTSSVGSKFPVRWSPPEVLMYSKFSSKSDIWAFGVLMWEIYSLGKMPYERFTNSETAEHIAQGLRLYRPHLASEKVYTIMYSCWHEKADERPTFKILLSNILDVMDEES

Row | Structure (SMILES) | pIC50
1 | CC1(c2ccc(C(=O)Nc3cccc(-c4nc(N)nc(Nc5ccc(N6CCOCC6)cc5)n4)c3CO)cc2)CC1 [Example 192, N-(3-{4-Amino-6-[(4-morph-olinophenyl)amino]-1,3,5-triazin-2-yl}-2-(hydroxymethyl)phe-nyl)-4-(1-methylcyclo-propyl)benzamide] | 9.15
2 | CN1CCN(c2ccc(Nc3nc(N)nc(-c4cccc(N5CCc6cc(C7CC7)cc(F)c6C5=O)c4CO)n3)cc2)CC1 [Example 193, 2-[3-(4-Amino-6-{[4-(4-methylpiperazin-1-yl)phenyl]amino}-1,3,5-triazin-2-yl)-2-(hy-droxymethyl)phenyl]-6-cyclopropyl-8-fluoro-3,4-dihydroisoquinolin-1(2H)-one] | 8.96
3 | Nc1nc(Nc2ccc(OC3CCOCC3)c(F)c2)nc(-c2cccc(N3CCc4cc(C5CC5)cc(F)c4C3=O)c2CO)n1 [Example 194, 2-{3-[4-Amino-6-({3-fluoro-4-[(tetrahydro-2H-pyran-4-yl)oxy]phe-nyl}amino)-1,3,5-tria-zin-2-yl]-2-(hydroxy-methyl)phenyl}-6-cyclo-propyl-8-fluoro-3,4-dihydroisoquinolin-1(2H)-one] | 9.05
4 | Nc1nc(Nc2ccc(OCCN3CCOCC3)cc2)nc(-c2cccc(N3CCc4cc(C5CC5)cc(F)c4C3=O)c2CO)n1 [Example 196, 2-[3-(4-Amino-6-{[4-(2-morpholinoethoxy)phe-nyl]amino}-1,3,5-tri-azin-2-yl)-2-(hydroxy-methyl)phenyl]-6-cyclo-propyl-8-fluoro-3,4-dihydroisoquinolin-1(2H)-one formate] | 8.47
5 | Nc1nc(Nc2ccc(Cc3nnn[nH]3)cc2)nc(-c2cccc(N3CCc4cc(C5CC5)cc(F)c4C3=O)c2CO)n1 [Example 198, 2-{3-[4-({4-[(1H-Tetra-zol-5-yl)methyl]phe-nyl}amino)-6-amino-1,3,5-triazin-2-yl]-2-(hy-droxymethyl)phenyl}-6-cyclopropyl-8-fluoro-3,4-dihydroisoquinolin-1(2H)-one] | 8.43
6 | CC(C)(C)c1ccc(C(=O)Nc2cccc(-c3nc(N)nc(Nc4ccc(OCCCO)cc4)n3)c2CO)cc1 [Example 200, N-[3-(4-Amino-6-{[4-(3-hydroxypropoxy)phe-nyl]amino}-1,3,5-triazin-2-yl)-2-(hydroxymeth-yl)phenyl]-4-(tert-butyl)benzamide] | 9.10
7 | CC(C)(CO)c1ccc(C(=O)Nc2cccc(-c3nc(N)nc(Nc4ccc(N5CCOCC5)cc4)n3)c2CO)cc1 [Example 201, N-(3-{4-Amino-6-[(4-mor-pholinophenyl)amino]-1,3,5-triazin-2-yl}-2-(hydroxymethyl)phe-nyl)-4-(1-hydroxy-2-meth-ylpropan-2-yl)benz-amide] | 8.47
8 | CC(C)(C)c1ccc(C(=O)Nc2cccc(-c3nc(N)nc(Nc4ccc(-c5nn[nH]n5)cc4)n3)c2CO)cc1 [Example 202, N-[3-(4-{[4-(1H-Tetra-zol-5-yl)phenyl]amino}-6-amino-1,3,5-triaz-in-2-yl)-2-(hydroxy-methyl)phenyl]-4-(tert-butyl)benzamide] | 8.89
9 | CC(C)(C)c1ccc(C(=O)Nc2cccc(-c3nc(N)nc(Nc4ccc(C[C@H]5COC(=O)N5)cc4)n3)c2CO)cc1 [Example 203, N-{3-[4-Amino-6-({4-[(2-oxooxazolidin-4-yl)methyl]phenyl}amino)-1,3,5-triazin-2-yl]-2-(hydroxymethyl)phe-nyl}-4-(tert-butyl) benzamide] | 9.40
10 | CC(C)(C)c1ccc(C(=O)Nc2cccc(-c3nc(N)nc(Nc4ccc(S(=O)(=O)N5CCOCC5)cc4)n3)c2CO)cc1 [Example 204, N-[3-(4-Amino-6-{[4-(morpholinosulfonyl)phe-nyl]amino}-1,3,5-tri-azin-2-yl)-2-(hydroxy-methyl)phenyl]-4-(tert-butyl)benzamide] | 8.89
11 | CC(C)(C#N)c1cc(F)c2c(c1)CCN(c1cccc(-c3nc(N)nc(Nc4cn[nH]c4)n3)c1CO)C2=O [Example 206, 2-[2-(3-{4-[(1H-Pyrazol-4-yl)amino]-6-amino-1,3,5-triazin-2-yl}-2-(hydroxymethyl)phe-nyl)-8-fluoro-1-oxo-1,2,3,4-tetrahydro-isoquinolin-6-yl]-2-meth-ylpropanenitrile] | 9.00
12 | CC(C)(O)c1ccc(C(=O)Nc2cccc(-c3nc(N)nc(Nc4ccc(N5CCOCC5)cc4)n3)c2CO)cc1 [Example 208, N-(3-{4-Amino-6-[(4-morpholinophenyl)amino]-1,3,5-triazin-2-yl}-2-(hydroxymethyl)phe-nyl)-4-(2-hydroxy-propan-2-yl)benzamide] | 8.23
13 | CC(C)(F)c1ccc(C(=O)Nc2cccc(-c3nc(N)nc(Nc4ccc(N5CCOCC5)cc4)n3)c2CO)cc1 [Example 209, N-(3-{4-Amino-6-[(4-morpholinophenyl)amino]-1,3,5-triazin-2-yl}-2-(hydroxymethyl)phe-nyl)-4-(2-fluoropropan-2-yl)benzamide] | 8.85
14 | CC(=O)N1CCN(c2ccc(Nc3nc(N)nc(-c4cccc(N5CCc6cc(C7CC7)cc(F)c6C5=O)c4CO)n3)cc2)CC1 [Example 220, 2-[3-(4-{[4-(4-Acetyl-piperazin-1-yl)phenyl]amino}-6-amino-1,3,5-triazin-2-yl)-2-(hy-droxymethyl)phenyl]-6-cyclopropyl-8-fluoro-3,4-dihydroisoquinolin-1(2H)-one] | 8.64
15 | Nc1nc(Nc2ccc(N3CCOCC3)cc2)nc(-c2cccc(N3CCc4c(sc5c4CCCC5)C3=O)c2CO)n1 [Example 227, 2-(3-{4-Amino-6-[(4-morpho-linophenyl)amino]-1,3,5-triazin-2-yl}-2-(hydroxymethyl)phe-nyl)-3,4,5,6,7,8-hexa-hydrobenzo[4,5]thieno [2,3-c]pyridin-1(2H)-one] | 8.46

Results, then the compound that gave them:

Row | pIC50 | Structure (SMILES)
16 | 9.10 | Nc1nc(Nc2cn[nH]c2)nc(-c2cccc(N3CCc4cc(C5CC5)cc(F)c4C3=O)c2CO)n1 [Example 195, 2-(3-{4-[(1H-Pyrazol-4-yl)amino]-6-amino-1,3,5-triazin-2-yl}-2-(hydroxymethyl)phenyl)-6-cyclopropyl-8-fluoro-3,4-dihydro-isoquinolin-1(2H)-one]
17 | 8.62 | Nc1nc(Nc2ccc(OCCCO)cc2)nc(-c2cccc(N3CCc4cc(C5CC5)cc(F)c4C3=O)c2CO)n1 [Example 197, 2-[3-(4-Amino-6-{[4-(3-hydroxypropoxy)phe-nyl]amino}-1,3,5-tri-azin-2-yl)-2-(hydroxymeth-yl)phenyl]-6-cyclo-propyl-8-fluoro-3,4-di-hydroisoquinolin-1(2H)-one]
18 | 8.00 | Cc1cc(Nc2nc(N)nc(-c3cccc(N4CCc5cc(C6CC6)cc(F)c5C4=O)c3CO)n2)n[nH]1 [Example 205, 2-(3-{4-Amino-6-[(5-meth-yl-1H-pyrazol-3-yl)amino]-1,3,5-triazin-2-yl}-2-(hydroxymeth-yl)phenyl)-6-cyclopro-pyl-8-fluoro-3,4-dihy-droisoquinolin-1(2H)-one]
19 | 9.05 | COCCn1cc(Nc2nc(N)nc(-c3cccc(N4CCc5cc(C6CC6)cc(F)c5C4=O)c3CO)n2)cn1 [Example 212, 2-[3-(4-Amino-6-{[1-(2-methoxyethyl)-1H-py-razol-4-yl]amino}-1,3,5-triazin-2-yl)-2-(hy-droxymethyl)phenyl]-6-cyclopropyl-8-fluoro-3,4-dihydroisoquinolin-1(2H)-one]
20 | 9.70 | Nc1nc(Nc2cnn(C3CCOCC3)c2)nc(-c2cccc(N3CCc4cc(C5CC5)cc(F)c4C3=O)c2CO)n1 [Example 218, 2-[3-(4-Amino-6-{[1-(tetra-hydro-2H-pyran-4-yl)-1H-pyrazol-4-yl]amino}-1,3,5-triazin-2-yl)-2-(hydroxymethyl)phenyl]-6-cycloprop-yl-8-fluoro-3,4-dihydro-isoquinolin-1(2H)-one]
21 | 9.10 | CCOC(=O)c1cc(Nc2nc(N)nc(-c3cccc(N4CCc5cc(C6CC6)cc(F)c5C4=O)c3CO)n2)cn1C [Example 219, Ethyl 4-({4-amino-6-[3-(6-cyclo-propyl-8-fluoro-1-oxo-3,4-dihydroisoquinolin-2(1H)-yl)-2-(hydroxy-methyl)phenyl]-1,3,5-triazin-2-yl}ami-no)-1-methyl-1H-pyrrole-2-carboxylate]
22 | 9.40 | CC(C)n1cc(Nc2nc(N)nc(-c3cccc(N4CCc5cc(C6CC6)cc(F)c5C4=O)c3CO)n2)cn1 [Example 222, 2-(3-{4-Amino-6-[(1-iso-propyl-1H-pyrazol-4-yl)amino]-1,3,5-tria-zin-2-yl}-2-(hydroxymeth-yl)phenyl)-6-cyclo-propyl-8-fluoro-3,4-di-hydroisoquinolin-1(2H)-one]
23 | 9.22 | Nc1nc(Nc2cnn(C3CCNCC3)c2)nc(-c2cccc(N3CCc4cc(C5CC5)cc(F)c4C3=O)c2CO)n1 [Example 223, 2-[3-(4-Amino-6-{[1-(piperidin-4-yl)-1H-py-razol-4-yl]amino}-1,3,5-triazin-2-yl)-2-(hy-droxymethyl)phenyl]-6-cyclopropyl-8-fluoro-3,4-dihydro-isoquinolin-1(2H)-one]
24 | 8.18 | Cn1cc(Nc2nc(N)nc(-c3cccc(N4CCc5cc(C6CC6)cc(F)c5C4=O)c3CO)n2)cc1C(=O)O [Example 224, 4-({4-Amino-6-[3-(6-cyclo-propyl-8-fluoro-1-oxo-3,4-dihydroisoquinolin-2(1H)-yl)-2-(hydroxy-methyl)phenyl]-1,3,5-triazin-2-yl}ami-no)-1-methyl-1H-pyr-role-2-carboxylic acid]
25 | 8.92 | Nc1nc(Nc2cnn(CCCO)c2)nc(-c2cccc(N3CCc4cc(C5CC5)cc(F)c4C3=O)c2CO)n1 [Example 225, 2-[3-(4-Amino-6-{[1-(3-hydroxypropyl)-1H-py-razol-4-yl]amino}-1,3,5-triazin-2-yl)-2-(hy-droxymethyl)phenyl]-6-cyclopropyl-8-fluoro-3,4-dihydro-isoquinolin-1(2H)-one]
26 | 8.62 | Nc1nc(Nc2ccsc2)nc(-c2cccc(N3CCc4cc(C5CC5)cc(F)c4C3=O)c2CO)n1 [Example 228, 2-{3-[4-Amino-6-(thio-phen-3-ylamino)-1,3,5-triazin-2-yl]-2-(hy-droxymethyl)phenyl}-6-cyclopropyl-8-fluoro-3,4-dihydroisoquinolin-1(2H)-one]
27 | 8.60 | CC(C)n1ccc(Nc2nc(N)nc(-c3cccc(N4CCc5cc(C6CC6)cc(F)c5C4=O)c3CO)n2)c1 [Example 229, 2-(3-{4-Amino-6-[(1-iso-propyl-1H-pyrrol-3-yl)amino]-1,3,5-triazin-2-yl}-2-(hydroxymeth-yl)phenyl)-6-cyclopro-pyl-8-fluoro-3,4-di-hydroisoquinolin-1(2H)-one]
